Structures are written as SMILES. Bounds are passed on as bounds.

Format in all cases: cell-based
In assay [1] the test system is KINGS1. Briefly: Stemness marker expression (qPCR, western blot). Particulars: KINGS1, 5 μM, 96 h. An excerpt: Super-enhancers consist of enhancer clusters with abundant binding of transcription factors and are highly enriched with H3K27ac marks. The H3K4me2 increased regions included the MYC locus and H3K4me2 de novo regions comprised Nestin and SOX2 loci (Fig. 2F, Supplementary Fig. S5A). These regions were also identified as super-enhancers in GSCs using data from our previous study (Fig. 2F). Compared to the large increase in H3K4me2 in these regions, changes in H3K4me3 were subtle after S2172 treatment (only 2582 regions were acquired modification) (Fig. 2C). Increasing the me2/me3 ratio at H3K4 is associated with reduced gene expression. […]
instructions. For GSC cells, the CellTiter-Glo 3D Viability Assay (Promega, Madison, WI, USA) was used to measure the living cells. All proliferation experiments were repeated […]
Total RNA from the cell lines was extracted using TRIzol (Thermo Fisher Scientific), followed by reverse-transcription using Prime Script RT Master Mix (Takara, Kusatsu, Japan). […]
B. Western blot analysis of LSD1,MYC, Nestin, SOX2,and ACTB in same cells as shown in panel A. ACTB was used as a loading control. […] Quantification of signal intensities of the Western blot (right panel). […] Right panel: Quantification of band signal intensities from the Western blot. […] The ratio was calculated by dividing the cleaved PARP band intensity by the full-length PARP band intensity. […]
Background: In qPCR the cycle at which signal appears reflects the starting amount.

Assay [2] has as its system Onda10. As to the kind of experiment: Cell proliferation assay (Cell Counting Kit 8). As to conditions: 96 h; Onda10 (grade III glioma), 4 days; read-out: Growth inhibitory IC50 (GI50). An excerpt: (§1) Supplementary materials and methods […]
(§2) Cell lines and culture conditions
(§3) Glioblastoma cell line, LN229, was obtained from the American Type Culture Collection (ATCC, Manassas, VA, USA). Normal fibroblast cell lines TIG3 and WI-38, TM31 (low grade glioma) were obtained from the RIKEN Bioresource Research Center (Tsukuba, Japan). Onda10 and KINGS1 (low grade glioma) cell lines were obtained from the Japanese Collection of Research Bioresources (Ibaraki, Japan). F3 is utilized as a neural stem cell line{Kim, 2004 #1412}{Natsume, 2013 #1009}. All cells were maintained in DMEM medium (Wako, Osaka, Japan) containing 5% fetal bovine serum (FBS, Thermo Fisher Scientific, Waltham, MA, USA) and 1% penicillin-streptomycin (Wako). […]
(§4) For the cell proliferation assay, cells at a density of 1 × 10^5 cells per well were seeded before treatment with LSD1 inhibitors. Cell proliferation was measured after 4 days using a Cell Counting Kit 8 (Dojindo, Kumamoto, Japan) according to the manufacturer ’s […]
(§5) instructions. For GSC cells, the CellTiter-Glo 3D Viability Assay (Promega, Madison, WI, USA) was used to measure the living cells. […]
A general note: Tetrazolium dyes change colour on reduction, which living cells bring about.

In assay [3] the test system is F3. As to the kind of experiment: Cell proliferation assay (Cell Counting Kit 8). As to conditions: 96 h; F3 (normal neural stem cell line), 4 days; read-out: Growth inhibitory IC50 (GI50).
Text: as §1, §2, §3, §4, §5

Assay [4] relates to WI38. Briefly: Cell proliferation assay (Cell Counting Kit 8). Particulars: Homo sapiens, WI-38, 96 h; WI38 (normal fibroblast), 4 days; read-out: Growth inhibitory IC50 (GI50).
Text: as §1, §2, §3, §4, §5

The test system of assay [5] is TM31. As to the kind of experiment: Cell proliferation assay (Cell Counting Kit 8). As to conditions: 96 h; TM31 (grade III glioma), 4 days; read-out: Growth inhibitory IC50 (GI50).
Text: as §1, §2, §3, §4, §5

Assay [6] concerns KINGS1. Briefly: Cell proliferation assay (Cell Counting Kit 8). Particulars: Homo sapiens, KINGS-1, 96 h; KINGS1 (grade III glioma), 4 days; read-out: Growth inhibitory IC50 (GI50).
Text: as §1, §2, §3, §4, §5

Assay [7] concerns LN229. As to the kind of experiment: Cell proliferation assay (Cell Counting Kit 8). As to conditions: Homo sapiens, LN-229, 96 h; LN229 (GBM cell line), 4 days; read-out: Growth inhibitory IC50 (GI50).
Text: as §1, §2, §3, §4, §5

The subject of assay [8] is TIG3. Briefly: Cell proliferation assay (Cell Counting Kit 8). Particulars: Homo sapiens, TIG-3, 96 h; TIG3 (normal fibroblast), 4 days; read-out: Growth inhibitory IC50 (GI50).
Text: as §1, §2, §3, §4, §5

`NC1CCC(NC2CC2c2cc(F)cc(F)c2OCc2ccccc2)CC1` (centres unmarked) [S2172]: in assay [1], the “stemness marker expression at mRNA and protein levels” value was “did not show significant changes”. The IC50 (in general, the point on the concentration scale where inhibition reaches its midpoint) in assay [2] came out at 21 µM; in assay [3] it was 22.5 µM; in assay [4], 29.9 µM; in assay [5], 17 µM; in assay [6] it was 33 µM; in assay [7], 8.2 µM. Moreover, in assay [8], the IC50 is > 40 µM.

Source of the values: publication PMC11645267, “Novel pharmacologic inhibition of lysine-specific demethylase 1 as a potential therapeutic for glioblastoma” (Cancer Gene Therapy, 2024).
